Assay results taken from ChEMBL document CHEMBL3792322, “Metabolic investigation on ZL006 for the discovery of a potent prodrug for the treatment of cerebral ischemia” (Bioorg Med Chem Lett, 2016).
Calls of active or inactive are those of the source. The rule behind the calls is not given here.

How the values were obtained:
Brain [1] = assay: Drug metabolism in mouse brain assessed as ZL006 formation at 20 mg/kg, iv measured 15 to 30 mins post dosing by HPLC-MS/MS method; assay type: ADME, organism-based; conditions: in vivo
Plasma = assay: Metabolic stability in mouse plasma at 20 mg/kg, iv measured 15 to 30 mins post dosing by HPLC-MS/MS method; assay type: ADME, organism-based; conditions: in vivo
Brain [2] = assay: Drug uptake in mouse brain at 20 mg/kg, iv measured 15 to 30 mins post dosing by HPLC-MS/MS method; assay type: ADME, organism-based; conditions: in vivo
Mus musculus [3] = assay: Protective activity in BCCAO-induced mouse acute cerebral ischemia model assessed as prolonged surviving time at 4 mg/kg, iv measured 1 hr post dose; assay type: functional, organism-based
Mus musculus [4] = assay: Protective activity in BCCAO-induced mouse acute cerebral ischemia model assessed as prolonged surviving time at 4 mg/kg, iv measured 4 hrs post dose; assay type: functional, organism-based
Rattus norvegicus [5] = assay: Protective activity in iv dosed MCAO-induced rat focal cerebral ischemia model assessed as reduction in infarct size treated at 1 hr post reperfusion measured after 24 hrs by TTC-staining based analysis; assay type: functional, organism-based
Rattus norvegicus [6] = assay: Protective activity in MCAO-induced rat focal cerebral ischemia model assessed as reduction in infarct size at 2 mg/kg, iv administered 1 hr post reperfusion measured after 24 hrs by TTC-staining based analysis; assay type: functional, organism-based
Rattus norvegicus [7] = assay: Protective activity in MCAO-induced rat focal cerebral ischemia model assessed as reduction in infarct size at 1 mg/kg, iv administered 1 hr post reperfusion measured after 24 hrs by TTC-staining based analysis; assay type: functional, organism-based

Row | SMILES | Drug metabolism (Brain [1]) | Stability (Plasma) | Drug uptake (Brain [2]) | Activity (Mus musculus [3]) | Activity (Mus musculus [4]) | Activity (Rattus norvegicus [5]) | Activity (Rattus norvegicus [6]) | Activity (Rattus norvegicus [7])
1 | COc1cc(NCc2cc(Cl)cc(Cl)c2O)ccc1C(=O)O | metabolite_notdetected | Unstable | Not Active |  |  |  |  | 
2 | O=C(OC1CCCCC1)c1ccc(NCc2cc(Cl)cc(Cl)c2O)cc1O | metabolite_detected | Stable |  | Active | Active | Dose-dependent effect | inactive | Active
3 | COc1c(Cl)cc(Cl)cc1CNc1ccc(C(=O)O)c(O)c1 | metabolite_notdetected |  |  |  |  |  |  | 
4 | CCOC(=O)c1ccc(NCc2cc(Cl)cc(Cl)c2O)cc1O | metabolite_detected | Stable |  | Active | Active |  |  | 
5 | COC(=O)c1ccc(NCc2cc(Cl)cc(Cl)c2O)cc1O | metabolite_detected | Stable |  | Active |  |  |  | 
6 | CN(Cc1cc(Cl)cc(Cl)c1O)c1ccc(C(=O)O)c(O)c1 | metabolite_notdetected |  | Not Active |  |  |  |  | 
